# Measurements reported in article PMC10411625, “Rationally designed stapled peptides allosterically inhibit PTBP1–RNA-binding” (Chemical Science, 2023).
# Key:
# [1] = Helicity by circular dichroism spectroscopy; type: physicochemical; conditions: 50 µM peptide, 20 mM sodium phosphate pH 8.0, 10 mM NaF, 20 °C, triplicates, JASCO multivariate secondary structure analysis
# Text: For the initial design we used the i, i + 4 strategy where two (S)-pentenyl alanines (S5) were introduced in positions with three other amino acids in between. We picked three different amino acid pairs to replace with the S5 amino acids based on their orientation as observed in the NMR structures (P-2, P-3 and P-4, Fig. 2B and C).[25] To prevent the staple from disturbing the interaction between the ligand and the protein we chose positions facing away from the binding site forming the pairs Ala145/Ala149, Gln148/Gln152, and Ala149/Ala153. The three peptides were synthesized on Rink amide resin and the linear peptides were treated with a Grubbs catalyst to connect the S5 residues. To avoid a mixture of E/Z-diastereomers we reduced the alkene in the linker of the staple using a solution phase hydrogenation protocol.[43] The linear equivalent P-1 was synthesized for comparison but had to be extended on the C-terminus with an arginine residue to improve its solubility. The C-terminus is away from the binding surface and this modification was therefore not expected to have an impact on the binding affinity. The peptides were tested in a competitive fluorescence polarization assay using the RRM12 construct and RNA-2 (Fig. 2C and S2 ^†). […] As the staple is expected to stabilize the α-helical conformation we used circular dichroism (CD) spectroscopy to evaluate the helicity of the peptides. […] It is possible that although P-4 was more helical than P-3, the replacement of Gln148 with the hydrophobic linker disturbed the interaction since the side chain amide potentially interacts with the RRM1 surface. […]
# (§1) performed in FP bufferPTBP1. […]
# (§2) serially diluted in the same buffer. […]
# (§3) a final concentration of 10 nM probe. […]
# (§4) the settings mentioned previously.
# (§5) Fluorescence polarization assay with SRSF1
# (§6) Fluorescence polarization was
# (§7) Fluorescence polarization assay with hnRNPA2/B1
# (§8) For the competitive assay 10 nM
# (§9) Microscale thermophoresis […]
# (§10) afterwards serially diluted into FP buffer.
# (§11) The data was evaluated at […]
# (§12) experiments were performed in duplicates.
# (§13) Circular Dichroism Spectroscopy […]
# hnRNP A2/B1 = molecular target: T1, hnRNP A2/B1 (Homo sapiens, UniProt P22626); assay: Competitive fluorescence polarization assay, hnRNP A2/B1 and RNA-AB; type: binding; conditions: Fig. 3C; competitive FP, 10 nM hnRNPA2/B1, 1 nM Cy5-labeled RNA-AB, 25 mM HEPES pH 8.0; read-out: P-6 Ki, construct hnRNP A2/B1
# T1 construct: (1-251); made in house; host or cells: E. coli BL21 (DE3) RIPL
# Text: (§14) The RRM domain is the most commonly occurring RNA-binding domain in the proteome making it challenging to find selective inhibitors.[23,46] Although various ligands have been described, their selectivity is rarely investigated, with an exception for the Musashi-1 inhibitor Ro 08-2750.[47–58] To investigate whether P-6 has an effect on the RNA-binding of other dual RRM containing proteins, we evaluated its inhibitory potency against another hnRNP protein (hnRNP A2/B1) as well as a splicing factor from the SR-protein class (SRSF1).[1] We evaluated P-6 in competitive fluorescence polarization assays using previously described RNAs recognized by these proteins.[59] […]
# as §1, §2, §3, §4, §5, §6, §7, §8, §9, §10, §11, §12, §13
# (§15) secondary structure analysis with a reference data set. For experiments with PTBP1 constructs the […]
# SRSF1 = molecular target: T2, SRSF1 (Homo sapiens, UniProt Q07955); assay: Competitive fluorescence polarization assay, SRSF1 and RNA-S; type: binding; conditions: Fig. 3C; competitive FP, 400 nM SRSF1, 1 nM Cy5-labeled RNA-S, pH 7.0; read-out: P-6 Ki, construct SRSF1
# T2 construct: SRSF1-RRM12 (1-195); His tag (cleaved yes); made in house; host or cells: E. coli BL21 (DE3)
# Text: as §14, §1, §2, §3, §4, §5, §6, §7, §8, §9, §10, §11, §12, §13, §15
# HEK293T cells = assay: Cell viability assay (CellTiterGlo 2.0); type: cell-based; conditions: CellTiterGlo 2.0, concentrations of up to 300 μM
# Procedure: protein was buffer exchanged into CD-Buffer using spin columns and measurements were performed in this buffer under similar conditions with protein concentrations of 0.2 mg/ml.
# Co-Crystallisation of RRM1Δα3 with P-6
# Protein construct RRM1Δα3 was purified using the protocol discussed above and concentrated to 14 mg/ml. P-6 was dissolved in SEC buffer and added in a 1.5 molar excess to the protein solution. After removal of particles by centrifugation (20000 x g, 4 °C, 10 min) sitting-drop experiments were set up by adding 200 nl of protein/ligand to 100 nl reservoir solution (1.89 M (NH4)2SO4, 0.1 M HEPES pH 6.86, 2% v/v PEG400) in MRC 3-drop plates. Sealed plates were incubated at 20 °C using a Formulatrix RockImager and crystals were obtained after several days. Prior to flash-freezing the crystals were cryo conserved by adding 0.5 µl reservoir solution containing 20% v/v glycerol to the drop.
# X-ray data collection and processing
# X-ray diffraction data was collected at X10SA (PXII) at Swiss Light Source. […]
# HEK293T cells were seeded at 30000 cells/well in 75 µl DMEM supplemented with 10% FBS with 1x Pen-Strep (Gibco) in 96-well plates on the day prior the experiment. […] Cell viability was read out using CellTiterGlo 2.0 (Promega) according to the manufacturers protocol. Viability was calculated in % of signal normalized to the DMSO controls.
# T2 sequence (Q07955 1-195, species assumed): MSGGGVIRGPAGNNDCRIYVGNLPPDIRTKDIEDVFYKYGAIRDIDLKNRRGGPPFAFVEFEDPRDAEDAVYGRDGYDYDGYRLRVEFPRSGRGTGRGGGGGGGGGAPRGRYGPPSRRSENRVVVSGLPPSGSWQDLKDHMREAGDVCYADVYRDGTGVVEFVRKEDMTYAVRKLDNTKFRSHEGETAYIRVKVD
# T1 sequence (P22626 1-251, species assumed): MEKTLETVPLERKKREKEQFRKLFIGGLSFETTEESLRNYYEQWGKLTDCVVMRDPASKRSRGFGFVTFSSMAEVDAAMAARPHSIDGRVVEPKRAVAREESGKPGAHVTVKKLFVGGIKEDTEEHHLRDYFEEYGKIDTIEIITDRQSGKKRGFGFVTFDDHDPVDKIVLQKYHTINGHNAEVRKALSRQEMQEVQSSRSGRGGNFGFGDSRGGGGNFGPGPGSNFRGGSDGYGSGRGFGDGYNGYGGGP
SMILES,Helicity by CD spectroscopy [1] [%],Ki (hnRNP A2/B1) [mM],Ki (SRSF1) [mM],cell viability (in words) (HEK293T cells)
CC(=O)N[C@@H](CC(N)=O)C(=O)N[C@@H](CCC(N)=O)C(=O)N[C@@]1(C)CCCCCCCC[C@@](C)(C(=O)N[C@@H](C)C(=O)N[C@@H](CC(C)C)C(=O)N[C@@H](CCC(N)=O)C(=O)N[C@@H](C)C(=O)N[C@H](C(=O)N[C@@H](CC(N)=O)C(N)=O)C(C)C)NC(=O)[C@H](CCC(N)=O)NC(=O)[C@H](C)NC(=O)[C@H](CCCNC(=N)N)NC1=O [Peptide P-2],92.3,–,–,–
CC(=O)N[C@@H](CC(N)=O)C(=O)N[C@@H](CCC(N)=O)C(=O)N[C@@]1(C)CCCC=CCCCC2(CCCC=CCCC[C@](C)(C(=O)N[C@H](C(=O)N[C@@H](CC(N)=O)C(N)=O)C(C)C)NC(=O)[C@H](CCC(N)=O)NC(=O)[C@H](CC(C)C)NC(=O)[C@H](C)NC2=O)NC(=O)[C@H](CCC(N)=O)NC(=O)[C@H](C)NC(=O)[C@H](CCCNC(=N)N)NC1=O (stereo partly shown) [Peptide P-6],–,> 1,> 1,not affected
